Laboratory results published in patent US20080119408A1, “PTH FORMULATIONS FOR INTRANASAL DELIVERY” (NASTECH PHARMACEUTICAL COMPANY INC., priority 2006, published 2008).
Where two headings read alike, the source gives them in different places. Ends that are not written are not given here.

Legend:
[1] = system: MatTek in vitro system; experiment: Chlorobutanol permeation study of API formulations (PTH, Calcitonin), MatTek in vitro system, ELISA; assay type: cell-based; conditions: CB 0-5 mg/mL
Method: Chlorobutanol (CB) was added to API formulations (PTH and Calcitonin) to test permeation in the MatTek in vitro system. CB was tested at varying concentrations (0, 1.25, 2.5, 3.75 and 5 mg/mL) in 10 mM citrate buffer, pH 4.0 and adjusted for a final target osmolality of 220 mOsm with sorbitol. Calcitonin and PTH were added at 2 mg/mL in each of the respective control or test formulations (n=6 insert per formulation). 1 mL of each formulation was placed into silanized 3 cc vials. A 0.1 mL volume of a 20× stock of one of the API compounds was added to 0.9 mL of 1.1× concentrated diluent form of each of the CB formulations to make the unique formulations.

[2] = system: Crl:CD(SD) rats; experiment: 13-week intranasal toxicity and toxicokinetics in rats; assay type: in vivo, rat
Method: (§1) Toxicity and toxicokinetics of PTH1-34 formulations were evaluated in male and female Crl:CD(SD) rats. PTH1-34 (synthetic form) was administered once daily via intranasal instillation to rats for at least 13 weeks. For comparison, one group received commercially available recombinant PTH1-34 via subcutaneous injection. Assessment of toxicity was based on mortality, clinical observations, ophthalmic examinations, body weights, food consumption, clinical and anatomic pathology, and toxicokinetic evaluations. Two synthetic PTH1-34 formulations were used in the study, PTH-072-1 and PTH-074 at low and high doses (formulations are shown in Table 22).
(§2) Doses in rats were determined for body weight, body surface area, and nasal surface area. Representative concentrations of PTH1-34 for clinical studies were considered to be 1.5 mg/mL and 3.0 mg/mL (and a dose volume of 100 μL). For the lower concentration, a 70 kg human would receive a dose of 2.1 μg/kg based on body weight. At the higher dose a human would receive a dose of 4.3 μg/kg based on body weight.

[3] = as above; assay type: in vivo, rat; conditions: Crl:CD(SD), rat, in vivo, sc, 25 μg/kg/day, female rats, administered by injection (subcutaneous)
Method: as §1, §2

[4] = system: beagles; experiment: 13-week intranasal toxicity and toxicokinetics in dogs; assay type: in vivo
Method: (§3) Toxicity and toxiokinetics of PTH1-34 was studied after administration of PTH1-34 once daily by intranasal instillation to dogs for at least 13 weeks. One additional group received recombinant PTH1-34 by subcutaneous injection for comparison.
(§4) Male and female beagles were assigned among six study groups. Animals assigned to groups 1 through 5 received an intranasal installation of a negative control (0.9% Sodium Chloride for Injection, USP), 40 or 80 μg/kg of body weight/day (μg/kg/day) PTH1-34 (synthetic form) in the PTH-072 formulation (Example 10, Table 22), or 80 or 200 μg/kg/day PTH1-34 (synthetic form) in the PTH-074-1 formulation (Example 10, Table 22).
(§5) Results were collected for mortality, clinical signs, gross nasal passage observations, ophthalmic findings, electrocardiogram measurements, blood pressure and heart rate differences, body weights, food consumption, clinical and anatomic pathology, and toxicokinetic evaluations. All animals in the study survived to scheduled necropsy. […] The nasal cavity was sectioned such that meaningful regions of the cavity were represented, and the soft (e.g., epithelial lining) or hard tissues (e.g., bone and cartilage based structures) of the nasal cavity were examined.

[5] = as above; assay type: in vivo; conditions: both sexes, beagle, dog, in vivo, sc, 6 μg/kg/day; dogs, subcutaneous injection; read-out: Tmax for PTH1-34
Method: as §3, §4, §5

[6] = system: EpiAirway Tissue Model (normal, human-derived tracheal/bronchial epithelial cells); experiment: Cytotoxicity, LDH assay (Example 3); assay type: cell-based; conditions: 60-min samples
Method: (§6) Each tissue insert was placed in an individual well containing 1 ml media. On the apical surface of the inserts, 100 μl of test formulation was applied, and the samples were shaken for 1 h at 37° C. The underlying culture media samples were taken at 20, 40, and 60 minutes and stored at 4° C. for up to 48 hours for lactate dehydrogenase (LDH, cytotoxicity) and sample penetration (PTH HPLC evaluations). The 60-min samples were used for the lactate dehydrogenase (LDH, cytotoxicity) assay. Transepithelial electrical resistance (TER) was measured before and after the 1-h incubation. Following the incubation, the cell inserts were analyzed for cell viability via the mitochondrial dehydrogenase (MDH) assay.
The amount of cell death was assayed by measuring the loss of lactate dehydrogenase (LDH) from the cells using a CytoTox 96 Cytoxicity Assay Kit (Promega Corp., Madison, Wis.). LDH analysis of the apical media was evaluated. The appropriate amount of media was added to the apical surface in order to total 250 μL, taking into consideration the initial sample loading volume. The inserts was shaken for 5 minutes. 150 μL of the apical media was removed to eppendorf tubes and centrifuged at 10000 rpm for 3 minutes. […] Following incubation, 50 μl of stop solution was added to each well and the plates read on an optical density plate reader at 490 nm.

[7] = system: EpiAirway Tissue Model (normal, human-derived tracheal/bronchial epithelial cells); experiment: Cell viability, MTT assay (Example 3); assay type: cell-based; conditions: after 1-h incubation
Method: as §6
Cell viability was assessed using the MTT assay (MTT-100, MatTek kit). Thawed and diluted MTT concentrate was pipetted (300 μl) into a 24-well plate. Tissue inserts were gently dried, placed into the plate wells, and incubated at 37° C. for 3 hours. After incubation, each insert was removed from the plate, blotted gently, and placed into a 24-well extraction plate. The cell culture inserts were immersed in 2.0 ml of the extractant solution per well (to completely cover the sample). The extraction plate was covered and sealed to reduce evaporation of extractant. […] The optical density of the samples was measured at 550 nm on a plate reader.

[8] = system: EpiAirway Tissue Model (normal, human-derived tracheal/bronchial epithelial cells); experiment: Transepithelial electrical resistance (TER), MatTek cell model (Examples 1-2); assay type: cell-based; conditions: 1-h incubation, apical application
Method: The effect of various permeation enhancers on PTH formulations was measured in a MatTek cell model (MatTek, Corp. Ashland, Mass.). Three permeation enhancers (EDTA, ethanol, and polysorbate 80 (Tween 80)) were evaluated individually and in combination with one another. Sorbitol was used as a tonicifiers to adjust the osmolality of formulations to 220 mOsm/kg whenever applicable. The formulation pH was adjusted to ˜4.0. The permeation enhancer combination of 45 mg/ml Me-β-CD, 1 mg/ml DDPC, and 1 mg/ml EDTA at pH 4.5 served as the positive control. The formulation containing sorbitol only was used as the negative control. Each formulation was evaluated in the presence and absence of preservative. […]
Each tissue insert was placed in an individual well containing 1 ml media. […] Transepithelial electrical resistance (TER) was measured before and after the 1-h incubation. Following the incubation, the cell inserts were analyzed for cell viability via the mitochondrial dehydrogenase (MDH) assay.
TER measurements were accomplished using the Endohm-12 Tissue Resistance Measurement Chamber connected to the EVOM Epithelial Voltammeter (World Precision Instruments, Sarasota, Fla.) with the electrode leads. […] The background resistance was measured with 1.5 ml Media in the Endohm tissue chamber and 300 μl Media in the blank insert. […] Resistance was expressed as (resistance measured−blank)×0.6 cm^2. […]

[9] = anesthetized rats, cited from earlier work

Compound: CC[C@H](C)[C@H](NC(=O)[C@H](CCC(=O)O)NC(=O)[C@H](CO)NC(=O)[C@@H](NC(=O)[C@@H](N)CO)C(C)C)C(=O)N[C@@H](CCC(N)=O)C(=O)N[C@@H](CC(C)C)C(=O)N[C@@H](CCSC)C(=O)N[C@@H](Cc1cnc[nH]1)C(=O)N[C@@H](CC(N)=O)C(=O)N[C@@H](CC(C)C)C(=O)NCC(=O)N[C@@H](CCCCN)C(=O)N[C@@H](Cc1cnc[nH]1)C(=O)N[C@@H](CC(C)C)C(=O)N[C@@H](CC(N)=O)C(=O)N[C@@H](CO)C(=O)N[C@@H](CCSC)C(=O)N[C@@H](CCC(=O)O)C(=O)N[C@@H](CCCN=C(N)N)C(=O)N[C@H](C(=O)N[C@@H](CCC(=O)O)C(=O)N[C@@H](Cc1c[nH]c2ccccc12)C(=O)N[C@@H](CC(C)C)C(=O)N[C@@H](CCCN=C(N)N)C(=O)N[C@@H](CCCCN)C(=O)N[C@@H](CCCCN)C(=O)N[C@@H](CC(C)C)C(=O)N[C@@H](CCC(N)=O)C(=O)N[C@@H](CC(=O)O)C(=O)N[C@H](C(=O)N[C@@H](Cc1cnc[nH]1)C(=O)N[C@@H](CC(N)=O)C(=O)N[C@@H](Cc1ccccc1)C(=O)O)C(C)C)C(C)C [PTH1-34, teriparatide]
- effect of addition of CB on permeation of the API [1]: enhanced permeation
- trabecular bone in femur and sternum ([2]; female rats, 25 μg/kg/day SQ, 200 μg/kg/day PTH-072-1, 500 μg/kg/day PTH-074-1 intranasally): thickened trabecular bone
- changes in nasal turbinate tissues ([2]; rats, 13 weeks intranasal): No changes considered to be attributable to the intranasal administration of PTH1-34 were observed
- clinical signs, ophthalmic observations, body weight, food consumption ([2]; rats, 13 weeks, regardless of route, dose level or formulation): No PTH1-34 related clinical signs, ophthalmic observations, body weight changes, or food consumption changes were observed
- Cmax [3]: 7.72 to 12.2 ng/mL
- Tmax [3]: 5 min
- half-life ([3]; read-out: t1/2 for PTH1-34): 15 to 23 min
- histologic changes in nasal tissues ([4]; dog, in vivo): no histologic changes in nasal tissues
- trabecular bone in femur and sternum ([4]; dogs dosed subcutaneously or intranasally at the high dose): minimally thickened trabecular bone
- AUClast greater in the dog than in humans at representative doses ([4]; dogs vs humans): ≥ 10 fold
- Cmax greater in the dog than in humans at representative doses ([4]; dogs vs humans): at least 7 fold
- clinical signs, ophthalmic findings, ECG, blood pressure, heart rate, body weights, food consumption ([4]; dogs, 13 weeks): No PTH1-34 related clinical signs, ophthalmic findings, electrocardiogram differences, blood pressure and heart rate differences, body weights, or food consumption changes were noted
- Tmax [5]: 13 to 26 min

Compound: Calcitonin (CGNLSTCMLGTYTQDFNKFHTFPQTAIGVGAP; ends and bridges not checked; cysteine pairing not given here; UniProt P01258 85-116, looked up) [peptide API tested for CB permeation enhancement]
- effect of addition of CB on permeation of the API [1]: failed to enhance permeation

Compound: Triton X
- cytotoxicity (LDH) [6]: significant cytotoxicity
- cell viability (MTT) [7]: significant reduction of cell viability
- TER reduction [8]: significant TER reduction

Compound: human growth hormone: protein whose nasal bioavailability in rats was reported raised by N-acetyl-L-cysteine
- nasal bioavailability of human growth hormone ([9]; with N-acetyl-L-cysteine): 12.2%
- nasal bioavailability of human growth hormone ([9]; without N-acetyl-L-cysteine): 7.5%
